Experimental data: patent US20230363424A1, “COMPOUNDS AND METHODS FOR ENHANCING SWEETNESS OF SWEETENERS” (Conagen Inc., priority 2021, published 2023)

Assays:
Assay type in all cases: in vivo, human
taste panelists [1] = assay: Sweetness enhancing effect with rebaudioside M, 2AFC sip and spit test; conditions: control 100 ppm Reb M solution, n=30
Procedure: (§1) The sweetness enhancing effect of Compounds (1), (2), and (3) when used with certain sweeteners (specifically, sucrose or rebaudioside M) was evaluated using a two-alternative forced choice “sip and spit” method (2AFC). The 2AFC test used for compound evaluation was a double-blinded and randomized test where taste panelists (n=30) evaluated a pair of sweetener solutions at a time—one sample contains aqueous sweetener solution plus compound (test sample), while the other contains the aqueous sweetener solution without compound (control). Each test sample was compared against a positive control. For example, if the test sample contained 5% sucrose solution with Compound (1), the positive control contained a 5% sucrose solution (i.e., without Compound (1)). Panelists were instructed not to eat or drink (except water) for at least 1 hour before the test. During the test panelists were instructed to sip each sample, swirl it around their mouth and then expectorate. After tasting each sample in the pair, panelists were instructed to record the sample that is “sweeter” in taste. Panelists cleansed their palates by rinsing with water, eating a cracker and waiting for an interval of about 5 minutes. All samples were tested at ambient temperatures.

taste panelists [2] = assay: Sweetness enhancing effect with sucrose, 2AFC sip and spit test; conditions: control 5% sucrose solution, n=30
Procedure: as §1

taste panelists [3] = assay: Inherent sweetness, two-alternative forced choice sip and spit (2AFC) vs 1.5% sucrose control; conditions: control 1.5% sucrose, n=30
Procedure: The inherent sweetness of Compounds (1), (2), and (3) as perceived by human subjects was evaluated using a two-alternative forced choice “sip and spit” method (2AFC). The 2AFC test used for compound evaluation was a double-blinded and randomized test where taste panelists (n=30) evaluated a pair of sweetener solutions at a time—one sample is a 1.5% sucrose control, while the other is an aqueous solution containing a test compound at the indicated concentration. Panelists were instructed not to eat or drink (except water) for at least 1 hour before the test. During the test panelists were instructed to sip each sample, swirl it around their mouth and then expectorate. […] Panelists cleansed their palates by rinsing with water, eating a cracker and waiting for an interval of about 5 minutes. All samples were tested at ambient temperatures.

[4] = compound 20 ppm in 100 ppm Reb M solution
[5] = compound 20 ppm in aqueous solution
[6] = compound 50 ppm in aqueous solution
[7] = compound 80 ppm in aqueous solution

SMILES	panelists who chose Sample as sweeter than Control (taste panelists [1]; [4])	panelists who chose Test Sample as sweeter than Control (taste panelists [2]; compound 60 ppm in 5% sucrose solution)	panelists who chose Sample as comparable in sweetness to Control (taste panelists [3]; [5])	panelists who chose Sample as comparable in sweetness to Control (taste panelists [3]; [6])	panelists who chose Sample as comparable in sweetness to Control (taste panelists [3]; [7])	panelists who chose Sample as sweeter than Control (taste panelists [2]; compound 40 ppm in 5% sucrose solution)	panelists who chose Sample as sweeter than Control (taste panelists [1]; compound 40 ppm in 100 ppm Reb M solution)	panelists who chose Sample as sweeter than Control (taste panelists [2]; compound 20 ppm in 5% sucrose solution)
Cc1cc(O)c2c(c1)OC(=O)CC2c1ccc(O)c(O)c1 (stereo not drawn) [Compound (1), 4-(3,4-dihydroxyphenyl)-5-hydroxy-7-methylchroman-2-one]	29 of 30 panelists	21 of 30 panelists	1 of 30 panelists chose Sample as	2 of 30 panelists chose Sample as	2 of 30 panelists chose Sample as			
COc1cc(C2CC(=O)Oc3ccc(O)c(C)c32)ccc1O (stereo not drawn) [Compound (2), 6-hydroxy-4-(4-hydroxy-3-methoxyphenyl)-5-methylchroman-2-one]	30 of 30 panelists		1 of 30 panelists chose Sample as	1 of 30 panelists chose Sample as	1 of 30 panelists chose Sample as	29 of 30 panelists		
COc1cc(C2CC(=O)Oc3cccc(O)c32)ccc1O (stereo not drawn) [Compound (3), 5-hydroxy-4-(4-hydroxy-3-methoxyphenyl)chroman-2-one]			2 of 30 panelists chose Sample as	2 of 30 panelists chose Sample as	1 of 30 panelists chose Sample as		20 of 30 panelists	28 of 30 panelists
